# Test results from ChEMBL document CHEMBL1157539, “Thousands of chemical starting points for antimalarial lead identification” (Nature, 2010).
# Test system: Plasmodium falciparum
# Assay: GSK_TCMDC: Inhibition of Plasmodium falciparum 3D7 in whole erythrocytes, using parasite LDH activity as an index of growth.
# Type: functional, organism-based
# Conditions: Plasmodium falciparum, 3D7
row,SMILES,XC50 [µM]
1,Cc1cccc2nc(-c3cccc(-c4ccc(NC(=O)C5CCCO5)cc4)c3)[nH]c12 (stereo unspecified),0.901
2,CCNc1cc(C)nc(Nc2ccc(NC(=O)c3ccc(OC)c(OC)c3)cc2)n1,1.07
3,COc1ccc(NC(=O)c2ccc(Br)c(C)c2)cc1N1CCN(CCCCc2ccccc2)CC1,0.817
4,CC1CCCN(S(=O)(=O)c2ccc(NC(=O)c3cc(-c4ccccc4O)n[nH]3)cc2)C1 (stereo unspecified),0.757
5,CN(c1ccccc1)c1ccnc(NC(=N)Nc2ccc(Cl)cc2)n1,1.09
6,COc1ccc(Nc2ccnc3cc4ccccc4cc23)cc1,0.683
7,Cc1[nH]c2ccccc2c1C1=CCN(CCN2CCOc3c(Br)cccc3C2=O)CC1,0.797
8,CC(Oc1c(C2CCN(CCCCNC(=O)c3ccc(-c4ccc(Cl)cc4)cc3)CC2)ccc2c1CCCC2)C(N)=O (stereo unspecified),0.948
9,Cc1cnc(N2CCN(CCCN3CCCC3)CC2)nc1Oc1ccc(-n2ccnc2)cc1,0.898
10,O=C(Nc1ccc(F)c(C(F)(F)F)c1)N[C@H]1CCN(CCCCCNC(=O)C2CC2c2ccc(Cl)c(Cl)c2)C1 (stereo partly specified),0.157
11,CCCCCCNC(=O)C1Cc2c([nH]c3cc(Cl)ccc23)C2(CCN(CCC)CC2)N1 (stereo unspecified),0.88
12,N#Cc1ccccc1Sc1ccccc1C(=O)Nc1ccc2ccccc2n1,0.507
13,CCOC(=O)c1cn(CC)c2cc(F)c(OC3CC4CCC3(C)C4(C)C)cc2c1=O (stereo unspecified),0.928
14,Oc1ccc2[nH]c(-c3cccs3)nc2c1CN1CCC(N2CCCC2)CC1,0.642
15,Cc1cc(C)cc(NC(=S)NCCCCN2CCN(c3cccc(Cl)c3)CC2)c1,1.35
16,O=C(Cn1c(SCc2cccc(F)c2F)cc(=O)c2ccccc21)N(CCCn1ccnc1)Cc1ccc(-c2ccc(C(F)(F)F)cc2)cc1,1.32
17,N=c1n(Cc2ccccc2)c2ccccc2n1CC(O)c1ccc(Cl)c(Cl)c1 (stereo unspecified),0.828
18,Cn1c(N=C2NC3(c4ccccn4)NC(=Nc4nc5ccccc5n4C)NC3(c3ccccn3)N2)nc2ccccc21 (stereo unspecified),1.04
19,O=C(Cn1c(CCc2cccc(F)c2F)cc(=O)c2ccccc21)N(Cc1ccc(-c2ccc(C(F)(F)F)cc2)cc1)C1CCN(CCN2CCOCC2)CC1,0.72
20,Cn1nc(-c2ccc(NC(=O)Nc3cc(C(F)(F)F)cc(C(F)(F)F)c3)c(F)c2)c2cnc(NCCN3CCOCC3)nc21,0.801
21,CC(CN(C)C)Oc1ccc2nc(-c3cccc(OCc4ccccc4)c3)[nH]c2c1C#N (stereo unspecified),0.407
22,Nc1nccc2ccc(-c3ccc(OCc4ccccc4)cc3)cc12,0.223
23,O=C(c1ccc(Cl)cc1)C1CCN(CCCOc2ccc3c(c2)CCNCC3)CC1,1.15
24,COc1ccc(CCn2c(=N)c(C(=O)NCc3cccnc3)cc3c(=O)n4ccccc4nc32)cc1,0.883

row,SMILES,XC50 [µM]
1,O=C(Nc1cccc(C(F)(F)F)c1)N1CCOC(CCN2CCC(c3ccccc3)CC2)(c2ccc(Cl)c(Cl)c2)C1 (stereo unspecified),1.11
2,Cc1ccnc(NC(c2ccc(Cl)c([N+](=O)[O-])c2)c2ccc3cccnc3c2O)c1 (stereo unspecified),0.927
3,Oc1ccc(-c2cc(-c3ccc(O)cc3)nc(-c3ccccc3)n2)cc1,0.783
4,CN(C)c1nc(NN=Cc2cc(Cl)ccc2O)nc(Nc2ccc(F)cc2)n1,0.837
5,COc1ccc(CCN(Cc2cccs2)C(=O)c2cc3sccc3n2C)cc1OC,0.349
6,O=C(Nc1cc2cc(-c3ccc(CN4CCCCC4)cc3)ccc2n2cnnc12)NC1CCCC1,1.52
7,Cc1ccc(OCCCCONC(=O)c2ccccc2)cc1,0.145
8,COc1ccc(-c2csc3ncnc(Cl)c23)cc1,0.781
9,CS(=O)(=O)Cc1ccc(Nc2nccc(NC3CCN(c4nccc(C(F)(F)F)n4)CC3)n2)cc1,0.896
10,COc1ccc2nccc([C@@H](O)CN3CCC(NC(=O)COc4nc(SCc5ccc(F)cc5)nc5c4CCC5)CC3)c2c1,0.595
11,Cc1noc(C)c1-c1ccc2c(Nc3ccc(C(F)(F)F)cc3)c(C(N)=O)cnc2c1,0.319
12,C=CCc1ccc(C2CCN(CCCCNC(=O)c3ccc(NC(=O)c4ccc(Cl)cc4)cc3)CC2)cc1,1.12
13,CN(C)CCOc1ccc(N2CCN(CCCCNC(=O)c3ccc(/C=C/c4cc(Cl)cc(Cl)c4)cc3)CC2)cc1,1
14,Cn1cncc1C(=O)Nc1cccc(-c2ccc(-c3nc4cc(F)ccc4[nH]3)s2)c1,0.872
15,CCC[C@@H]1CCN[C@H]([C@H](O)c2ccnc3ccc(OC)cc23)C1,0.726
16,c1ccc(CN2CCC(NCc3cccc(-c4cncc5ccccc45)c3)CC2)cc1,1.36
17,CCNc1cc(C(=O)N[C@@H](Cc2ccoc2)[C@H](O)CNC(C)CCCC(C)C)cc(N2CCCCS2(=O)=O)c1 (stereo partly specified),0.619
18,O=C(NC1CCC1)C1CCN(C(c2ccc(Cl)cc2)c2ccc(Cl)cc2)CC1,0.562
19,O=C(Nc1cccc(CN2CCCN(Cc3ccc(O)cc3)CC2)c1)c1ccc(Br)cc1,0.8
20,COc1ccc(-n2ccnc2SCC(=O)Nc2cc(C(F)(F)F)ccc2Cl)c(OC)c1,0.035
21,CC[C@H]1CN2CC[C@@H]1C[C@H]2[C@H](O)c1cc(N2CCC(O)(c3ccccc3)CC2)nc2ccc(OC)cc12,0.09
22,CC1(C)CNCc2cc(NC(=O)/C=C/c3ccc(Cl)cc3)ccc21,1.18
23,CCCCCCCc1c2c(C)c(C(=O)OCC)nc-2cc2n1CC(C)=C2C,1.14
24,COc1ccc2nccc(N3CCC(CCNCc4ccc5c(n4)NC(=O)CS5)CC3)c2n1,0.227

row,SMILES,XC50 [µM]
1,N=c1n(CCN2CCCC2)c2ccccc2n1CC(O)c1ccc(Cl)c(Cl)c1 (stereo unspecified),0.277
2,O=C(Nc1cccc(-c2csc(-c3nc4ccccc4[nH]3)c2)c1)c1ccoc1,0.211
3,COc1cccc(OC)c1OCCCON1C(=N)N=C(N)NC1(C)C,0.00728
4,Fc1ccc2[nH]c(-c3cccc(-c4ccc(CNCCN5CCNCC5)cc4)c3)nc2c1,0.904
5,O=C(c1cccc(-c2ccc(-c3nc4cc(C(F)(F)F)ccc4[nH]3)cc2)c1)N1CCCCC1CN1CCC(O)C1 (stereo unspecified),0.465
6,CCN1CCC(N(Cc2ccc(-c3ccc(C(F)(F)F)cc3)cc2)C(=O)Cn2c(CCc3cccc(F)c3F)cc(=O)c3cn(C)nc32)CC1,0.24
7,CCn1c2ccccc2c2cc(Cc3cnc(N)nc3N)ccc21,0.221
8,COc1c(C2CCN(CCCCNC(=O)c3ccc(-c4ccc(Cl)cc4)cn3)CC2)ccc2c1CCCC2,0.912
9,O=C(/C=C/c1cccc(Cl)c1)Nc1ccc2nc(CN3CCCC3)ccc2c1,0.255
10,O=C(Nc1cccc(CN2CCN(C(=O)c3cccc(F)c3)CC2)c1)c1ccco1,0.775
11,Cc1cc(NCCCCCCNc2cc(C)nc3c(C)cccc23)c2cccc(C)c2n1,0.406
12,Cc1cccc2nc(-c3ccc(-c4ccc(CN5CCC(N)C5)cc4)s3)[nH]c12 (stereo unspecified),0.373
13,COc1ccc(NC(=O)Nc2ccc(Nc3nc(C)cc(N(C)C)n3)cc2)cc1,0.454
14,CCN(CC)S(=O)(=O)c1cc(-c2ccc(=O)n(CC(=O)c3ccc(C)cc3)n2)ccc1C,0.895
15,Oc1ccc(Nc2ccnc3cc(Cl)ccc23)cc1,0.744
16,FC(F)(F)c1ccc2[nH]c(-c3ccc(-c4cccc(CNCCN5CCNCC5)c4)cc3)nc2c1,1.03
17,CC(C)(C)c1ccc(O)c(CNC2CCCCC2)c1,0.264
18,CC(C)C[C@H](NC(=O)[C@H](Cc1ccccc1)N(C[C@H](Cc1ccccc1)NC(=O)OC(C)(C)C)C(=O)C(F)(F)F)C(=O)NC1CCN(Cc2ccccc2)CC1,0.53
19,COc1cc2nc(NCCc3cccc(Cl)c3)nc(NCc3ccccc3)c2cc1OC,0.124
20,CCOC(=O)c1c(C)noc1Nc1cccc(C)c1C,0.416
21,O=C(c1ccc(O)c(-c2cc(Cl)cc(Cl)c2)c1)N1CCCC1,1
22,Cc1cccc2nc(-c3cccc(-c4ccc(NC(=O)Nc5ccc(Cl)c(Cl)c5)cc4)c3)[nH]c12,0.566
23,CN(C)C(S)=NN=Cc1cccc(O)c1O,0.872
24,COC(=O)c1ccc(CC(C)NCC(O)c2cccc(OCc3ccccc3)c2)cc1 (stereo unspecified),1.16

row,SMILES,XC50 [µM]
1,CSc1ccc(NC(=O)Nc2cc(C)nc3ccccc23)cc1Br,0.778
2,COc1ccc(NC(=O)[C@H](CC(C)C)Nc2cc(C)nc(NCCc3ccccc3OC)n2)cc1,0.988
3,CN1CCN(c2ccc(CNc3ccc4ncc(-c5cccc(OC(F)(F)F)c5)n4n3)cc2)CC1,0.862
4,CCOC(=O)C(CO)NC(=O)c1ccc([N+](=O)[O-])o1 (stereo unspecified),0.289
5,CO[C@H](C)[C@H](NC(=O)[C@H](CC(C)C)[C@H](CCC(F)(F)F)N(O)C=O)C(=O)Nc1nccs1,0.11
6,CNc1nc(N/N=C/c2cc([N+](=O)[O-])c(Cl)cc2Cl)nc(Nc2cccc(C(F)(F)F)c2)n1,0.729
7,O=C(Nc1cccc(Cl)c1Cl)N[C@H]1CCN(CCCCCNC(=O)C2CC2c2ccc(Cl)c(Cl)c2)C1 (stereo partly specified),1.28
8,CC(C)=C(C(=O)OCc1ccccc1)N1C(=O)[C@@H](NC(c2ccccc2)(c2ccccc2)c2ccccc2)[C@H]1[S+]([O-])CC(=O)OC(C)(C)C (stereo partly specified),1.02
9,COCCSc1ccc(CC(C)NCC(O)c2cccc(Cl)c2)cc1 (stereo unspecified),0.758
10,OCC(c1ccccc1)n1c(COc2ccc(Cl)cc2)nc2c(OCCCN3CCCCC3)cccc21 (stereo unspecified),0.916
11,CN(Cc1cccc(C#N)c1)C1CCN(c2cc(NC(=O)c3cccc(F)c3)ccn2)CC1,0.926
12,CCCNC[C@@H](O)[C@H](Cc1ccccc1)NC(=O)c1cc2c3c(c1)c(CC)cn3CCS(=O)(=O)N2C,0.101
13,Cc1cc(N[C@@H](CC(C)C)C(=O)NC2CCCC2)nc(NCCc2ccc(F)cc2)n1,0.794
14,Cc1cccc(N2C(N)=NC(N)=NC2(C)C)c1C,0.759
15,Cc1cc(N[C@@H](Cc2ccccc2)C(=O)NCCCOC(C)C)nc(NCC2CCCCC2)n1,0.875
16,O=C(Nc1ccc2c(c1)OCO2)c1cc(-c2cccnc2)nc2ccc(Cl)cc12,0.524
17,O=c1cc(NCCCNCc2cc(Cl)cc(Cl)c2OCc2ccccc2)[nH]c2ccccc12,1.03
18,Cc1ccc2sc(N(CCCn3ccnc3)C(=O)c3ccco3)nc2c1C,0.966
19,CCN(C(=O)CSc1cc(C)c2cc(C)cc(C)c2n1)C1CCS(=O)(=O)C1 (stereo unspecified),0.667
20,CN(C)CCNCc1ccc(-c2ccc3c(Nc4ccc(Cl)cc4F)ccnc3c2)o1,0.208
21,COc1ccc(NC(=O)/C=C/c2ccccc2Cl)cc1OCCN1CCC(N2CCCCC2)CC1,0.901
22,Nc1nc(NCC2CCC(CNS(=O)(=O)c3cccc4ccccc34)CC2)nc2ccccc12 (stereo unspecified),0.804
23,Nc1nc(N)c2c(Oc3cc(Cl)c(Cl)c(Cl)c3)cccc2n1,0.804
24,CC(=O)c1c[nH]c2ccc(/C=C/C(=O)NC3CCC(CCN4CCc5ccc(C#N)cc5CC4)CC3)cc12 (stereo unspecified),0.496
